The values below come from US20240384350A1, “METHODS OF TREATING CANCER WITH KINASE INHIBITORS” (BOARD OF REGENTS, THE UNIVERSITY OF TEXAS SYSTEM, priority 2021, published 2024).

Assay in all cases: Ba/F3 drug screening, Cell Titer Glo, IC50 Mut/WT
Format in all cases: cell-based
For orientation: ATP-based viability assays read luminescence as a measure of living cells.

One experiment deals with T1, EGFR L747S (Homo sapiens, UniProt P00533, L747S).
T1 construct: expressed in transfected cells; host or cells: Ba/F3
The note with it: Ba/F3 cells, EGFR L747S (PACC), Mut/WT.

The target in a further experiment is T2, EGFR K757R (Homo sapiens, UniProt P00533, K757R).
T2 construct: expressed in transfected cells; host or cells: Ba/F3
The note with it: Ba/F3 cells, EGFR K757R (PACC), Mut/WT.

The next experiment concerns the target T3, EGFR Ex19del/L792H (Homo sapiens, UniProt P00533, DEL746-750/L792H).
T3 construct: expressed in transfected cells; host or cells: Ba/F3
The note with it: Ba/F3 cells, EGFR Ex19del/L792H (PACC), Mut/WT.

In a further experiment the target is T4, EGFR S768dupSVD V769M (Homo sapiens, UniProt P00533, INS768MDS/V769M).
T4 construct: expressed in transfected cells; host or cells: Ba/F3 cells, retroviral pBabe-Puro vector (vector made by GeneScript from EGFR S768dupSVD, c.2305G > A)
The note with it: Ex20, 72 hours.

A further experiment has as its target T5, EGFR L833V (Homo sapiens, UniProt P00533, L833V).
T5 construct: expressed in transfected cells; host or cells: Ba/F3 cells, retroviral pBabe-Puro vector
The note with it: Classical-Like, 72 hours.

The next experiment addresses T6, EGFR V769L (Homo sapiens, UniProt P00533, V769L).
T6 construct: expressed in transfected cells; host or cells: Ba/F3
The note with it: Ba/F3 cells, EGFR V769L (PACC), Mut/WT.

In the next experiment the target is T7, EGFR L858R/T790M/C797S (Homo sapiens, UniProt P00533, C797S/L858R/T790M).
T7 construct: expressed in transfected cells; host or cells: Ba/F3
The note with it: T790M-like-3R, 72 hours.

A further experiment addresses T8, EGFR Ex19del L718V (Homo sapiens, UniProt P00533, DEL746-750/L718V).
T8 construct: expressed in transfected cells; host or cells: Ba/F3
The note with it: Ba/F3 cells, EGFR Ex19del L718V (PACC), Mut/WT.

The next experiment deals with T9, EGFR G719A T790M (Homo sapiens, UniProt P00533, G719A/T790M).
T9 construct: expressed in transfected cells; host or cells: Ba/F3
The note with it: T790M-like-3S, 72 hours.

The target of a further experiment is T10, EGFR E709A (Homo sapiens, UniProt P00533, E709A).
T10 construct: expressed in transfected cells; host or cells: Ba/F3
The note with it: Ba/F3 cells, EGFR E709A (PACC), Mut/WT.

The target of the next experiment is T11, EGFR A767insASV (Homo sapiens, UniProt P00533, DUP767-769).
T11 construct: expressed in transfected cells; host or cells: Ba/F3 cells, retroviral pBabe-Puro vector
The note with it: Ex20, 72 hours.

For the next experiment, the target named is T12, EGFR T725M (Homo sapiens, UniProt P00533, T725M).
T12 construct: expressed in transfected cells; host or cells: Ba/F3 cells, retroviral pBabe-Puro vector (vector made by GeneScript from EGFR WT)
The note with it: Classical-Like, 72 hours.

The target of a further experiment is T13, EGFR S784F (Homo sapiens, UniProt P00533, S784F).
T13 construct: expressed in transfected cells; host or cells: Ba/F3 cells, retroviral pBabe-Puro vector (vector made by GeneScript from EGFR WT)
The note with it: Classical-Like, 72 hours.

Another experiment concerns the target T14, EGFR E709K (Homo sapiens, UniProt P00533, E709K).
T14 construct: expressed in transfected cells; host or cells: Ba/F3
The note with it: Ba/F3 cells, EGFR E709K (PACC), Mut/WT.

The target of the next experiment is T15, EGFR L861R (Homo sapiens, UniProt P00533, L861R).
T15 construct: expressed in transfected cells; host or cells: Ba/F3 cells, retroviral pBabe-Puro vector (vector made by GeneScript from EGFR WT)
The note with it: Classical-Like, 72 hours.

The next experiment deals with T16, EGFR L858R/T790M/L718Q (Homo sapiens, UniProt P00533, L718Q/L858R/T790M).
T16 construct: expressed in transfected cells; host or cells: Ba/F3
The note with it: T790M-like-3R, 72 hours.

The target of another experiment is T17, EGFR D761N (Homo sapiens, UniProt P00533, D761N).
T17 construct: expressed in transfected cells; host or cells: Ba/F3 cells, retroviral pBabe-Puro vector
The note with it: Classical-Like, 72 hours.

The next experiment addresses T18, EGFR Ex19del G724S (Homo sapiens, UniProt P00533, DEL746-750/G724S).
T18 construct: expressed in transfected cells; host or cells: Ba/F3
The note with it: Ba/F3 cells, EGFR Ex19del G724S (PACC), Mut/WT.

In a further experiment the target is T19, EGFR Ex19del L718Q (Homo sapiens, UniProt P00533, DEL746-750/L718Q).
T19 construct: expressed in transfected cells; host or cells: Ba/F3
The note with it: Ba/F3 cells, EGFR Ex19del L718Q (PACC), Mut/WT.

The target of another experiment is T20, EGFR Ex19del G796S (Homo sapiens, UniProt P00533, DEL746-750/G796S).
T20 construct: expressed in transfected cells; host or cells: Ba/F3
The note with it: Ba/F3 cells, EGFR Ex19del G796S (PACC), Mut/WT.

A further experiment deals with T21, EGFR L858R T790M V843I (Homo sapiens, UniProt P00533, L858R/T790M/V843I).
T21 construct: expressed in transfected cells; host or cells: Ba/F3
The note with it: T790M-like-3S, 72 hours.

The next experiment deals with T22, EGFR Ex19del T854I (Homo sapiens, UniProt P00533, DEL746-750/T854I).
T22 construct: expressed in transfected cells; host or cells: Ba/F3 (retroviral transduction, pBabe-Puro based vectors)
The note with it: Ba/F3 cells, EGFR Ex19del T854I (PACC), Mut/WT.

Another experiment deals with T23, EGFR L858R G724S (Homo sapiens, UniProt P00533, G724S/L858R).
T23 construct: expressed in transfected cells; host or cells: Ba/F3 (retroviral transduction, pBabe-Puro based vectors)
The note with it: Ba/F3 cells, EGFR L858R G724S (PACC), Mut/WT.

With `C=CC(=O)N1CC[C@@H](Oc2nc(Nc3ccc(N4CCC(N5CCN(C)CC5)CC4)cc3)c(C(N)=O)nc2CC)C1` [Naquotinib], the “ratio of the IC50 value for cells with a PACC EGFR mutation to the IC50 value for cells with wildtype EGFR” value (“ratio of the IC50 value for cells” for short) stood at 0.8911 on EGFR L747S; 1.658 at EGFR K757R; 0.02929 at EGFR Ex19del/L792H; 1.624 at EGFR V769L; 0.1035 at EGFR Ex19del L718V; 0.0743 at EGFR E709A. In addition, the “ratio of the IC50 value for cells” value is given as 0.2663 at EGFR E709K; 0.8866 at EGFR Ex19del G724S; 0.05586 on EGFR Ex19del L718Q; 1.137 on EGFR Ex19del G796S; 1.06 at EGFR Ex19del T854I; 0.5799 at EGFR L858R G724S. For the same molecule, the “ratio of IC50 for cells with mutant EGFR to IC50 for cells with wildtype EGFR (Mut/WT)” value (from here on “ratio of IC50 for cells with mutant EGFR”) was found to be 1.96 on EGFR S768dupSVD V769M; 0.02478 at EGFR L833V; 32.29 on EGFR L858R/T790M/C797S; 0.08702 at EGFR G719A T790M; 1.61 at EGFR A767insASV; 0.5761 at EGFR T725M. Further, the “ratio of IC50 for cells with mutant EGFR” value at EGFR S784F is reported as 0.3727; at EGFR L861R it was 0.09054; at EGFR L858R/T790M/L718Q it was 0.6815; on EGFR D761N it was 0.1966; on EGFR L858R T790M V843I, 0.01519.

Consider `C=CC(=O)Nc1cccc(Oc2nc(Nc3ccc(N4CCN(C)CC4)cc3)nc3ccsc23)c1` [Olmutinib], for which the “ratio of the IC50 value for cells” value on EGFR L747S is given as 0.06291; on EGFR K757R it was 0.1439; on EGFR Ex19del/L792H, 0.01923; on EGFR V769L, 0.3121; at EGFR Ex19del L718V, 0.0862; on EGFR E709A it was 0.01516. Also, the “ratio of the IC50 value for cells” value amounted to 0.05562 on EGFR E709K; 0.268 at EGFR Ex19del G724S; 0.03389 on EGFR Ex19del L718Q; 0.8234 on EGFR Ex19del G796S; 1.31 on EGFR Ex19del T854I; 0.02052 at EGFR L858R G724S. Also, the “ratio of IC50 for cells with mutant EGFR” value at EGFR S768dupSVD V769M was 0.5379; on EGFR L833V it was 0.03803; on EGFR L858R/T790M/C797S, 4.111; on EGFR G719A T790M, 0.0114; at EGFR A767insASV, 0.6792; on EGFR T725M, 0.03664. Further, the “ratio of IC50 for cells with mutant EGFR” value at EGFR S784F stood at 0.14; at EGFR L861R it was 0.02937; on EGFR L858R/T790M/L718Q, 0.6196; on EGFR D761N, 0.1654; on EGFR L858R T790M V843I, 0.000771.

With `C=CC(=O)Nc1cc(Nc2ncc(C(=O)OC(C)C)c(-c3cn(C)c4ccccc34)n2)c(OC)cc1N(C)CCN(C)C` [TAK-788 (mobocertinib), mobocertinib], the “ratio of the IC50 value for cells” value stood at 2.299 at EGFR L747S; 1.563 at EGFR K757R; 6.547 on EGFR Ex19del/L792H; 3.454 at EGFR V769L; 1.296 on EGFR Ex19del L718V; 1.583 on EGFR E709A. For the same molecule, the “ratio of the IC50 value for cells” value is 10.68 on EGFR E709K; 3.682 at EGFR Ex19del G724S; 1.286 at EGFR Ex19del L718Q; 32.48 at EGFR Ex19del G796S; 4.794 on EGFR Ex19del T854I; 0.01089 at EGFR L858R G724S. The “ratio of IC50 for cells with mutant EGFR” value came to 0.5446 at EGFR S768dupSVD V769M; 0.1367 at EGFR L833V; 134.7 at EGFR L858R/T790M/C797S; 0.4864 on EGFR G719A T790M; 1.553 on EGFR A767insASV; 1.082 on EGFR T725M. The “ratio of IC50 for cells with mutant EGFR” value at EGFR S784F came to 0.01487; on EGFR L861R, 0.3102; on EGFR L858R/T790M/L718Q it was 149.2; on EGFR D761N it was 0.363; on EGFR L858R T790M V843I it was 1.649.
